“And” between values parts separate entries of the source, which are not always exact repeats. Equal values may be shown once. Read-outs that look alike come from different tables or passages of the source.
Experiments:
[1] = test system: C. parvum (UGA1 Nluc expressing strain in HCT-8 cells); test: microbe, parasite or virus in culture; format: cell-based, Cryptosporidium parvum; settings: for EC50: read-out: C. parvum EC50; for Crypto (10 uM) Mean % inhibition: initial Pathogen Box screen, single concentration 10 µM, inhibition compared to DMSO wells
How it was run: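 Parasite growth quantified by NanoLuc luminescence from lysed infected HCT-8 cells, with EC50 fitted from dose curves. Compounds, single-dose 10 μM or serially diluted, were added to confluent 48 h monolayers before infection with bleached UGA1 Nluc oocysts.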

[2] = test system: HepG2 cells; test: Cytotoxicity against HepG2 cells, AlamarBlue viability assay, 48 hours; format: cell-based, human; settings: read-out: HepG2 CC50 (this study)
Text: (§1) Mammalian cell cytotoxicity assay data performed on HepG2 (human hepatocellular carcinoma) cells and described as CC20 or CC50 values are provided in supporting documentation that accompanied the Pathogen Box for approximately three quarters of the 400 compounds. However, no details of the assay conditions or parameters were provided. In this study, selected compounds were further tested for cytotoxicity against HepG2 cells as previously described. Briefly, cells were exposed to two-fold serial dilutions of compounds for 48 hours and cytotoxicity was assessed using the AlamarBlue® viability assay (Thermo Fisher Scientific, Waltham, MA). Each dilution was assayed in quadruplicate and concentrations causing 50% growth inhibition (CC50) were calculated by non-linear regression using GraphPad Prism 7 software (GraphPad Software, San Diego, CA).

[3] = test system: HepG2 cells; settings: ref Pathogen_Box_Activity_Biological_Data_ Structure & Smiles (https://www.pathogenbox.org/about-pathogen-box/composition); read-out: HepG2 CC50 (literature values); cited from earlier work
[4] = test system: G. lamblia trophozoites (luciferase expressing, WBC6); test: microbe, parasite or virus in culture; format: cell-based, Giardia lamblia; settings: for Giardia (16 uM) Mean % inhibition: initial Pathogen Box screen, single concentration 16 µM, inhibition compared to DMSO wells; for EC50: read-out: G. lamblia EC50
How it was run: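 Incubation ran 24 h at 37 °C under anaerobic conditions, with compound added in equal volume to trophozoites (WBC6, luciferase-expressing, 250,000 cells/mL). Bioluminescence was the read-out, cross-checked by MOXI Z counts on a duplicate plate; metronidazole served as control (1:2 dilutions from 40 μM).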

[5] = Cytotoxicity against HepG2 cells, AlamarBlue viability assay, 48 hours; format: cell-based, human; settings: human, HepG2 cells, read-out: HepG2 CC50 (this study)
Text: as §1

[6] = test system: G. lamblia; settings: reference strain WB (48h); read-out: G. lamblia EC50 (literature); cited from earlier work
[7] = Nluc C. parvum in HCT-8 cells, 48 hours
[8] = luciferase expressing G. lamblia trophozoites, 24 hours, D-luciferin bioluminescence read-out

SMILES	Crypto (10 uM) Mean % inhibition [1]	CC50 [3] [µM]	Giardia (16 uM) Mean % inhibition [4]	EC50 [4, 8] [µM]	also measured
OCCc1ccc(Nc2nccc(-c3nnc4ccccn34)n2)cc1 [MMV028694]	85%	8.1	99%	3.88 ± 1.27	EC50 [1, 7]: 1.56 ± 0.5 µM; CC50 [2]: 15.9 µM
O=[N+]([O-])c1cn2c(n1)OC[C@@H](OCc1ccc(OC(F)(F)F)cc1)C2 [MMV688755]	17%	> 50	99%	1.57 ± 0.38	CC50 [2]: > 40 µM
C[C@]1(COc2ccc(N3CCC(Oc4ccc(OC(F)(F)F)cc4)CC3)cc2)Cn2cc([N+](=O)[O-])nc2O1 [MMV688262, Delamanid, reference compound]		72.5			inhibition at 10 µM ([1]; Cryptosporidium parvum, HCT-8, read-out: Crypto (10 uM) Mean % inhibition): < 0%; CC50 at 48 h [5]: > 40 µM; EC50 ([4]; Giardia duodenalis, 24 h): 0.55 ± 0.04 µM; inhibition at 16 µM ([4]; Giardia duodenalis, read-out: Giardia (16 uM) Mean % inhibition): 97%
O=C(Nc1ccc(N2CCNCC2)cc1)c1ccn2ncc(-c3cccc(Cl)c3)c2n1 [MMV022478]	X* (Mean or standard deviation are negative but not significantly different from the control to be a growth promoter)	> 10	98%	2.41 ± 0.12	CC50 [2]: > 40 µM
O=C(Nc1nnc(-c2ccc(Cl)s2)o1)c1ccc(Cl)s1 [MMV676501]	93%	50.1	78%	1.4 ± 0.2	EC50 [1, 7]: 4.96 ± 1.8 µM; CC50 [2]: > 40 µM
COc1ccc2nccc(NC(=O)C3CCN(CCc4ccc(Cl)cc4)CC3)c2n1 [MMV688844]	X* (Mean or standard deviation are negative but not significantly different from the control to be a growth promoter)	> 50	98%	2.3 ± 0.43	CC50 [2]: > 40 µM
O=C(Nc1cccnc1)c1c(O)c2cccc3c2n(c1=O)CC3 [MMV676395]	85%	> 100	98%	1.57 ± 0.2	C. parvum EC50 [1, 7]: not potent; CC50 [2]: > 40 µM
CN1CCN(CCCOc2ncc(Nc3ncc(-c4ccc(C(F)(F)F)c(F)c4)nc3C(N)=O)cn2)CC1 [MMV687812]	66%	3.9	98%	1.25 ± 0.12	CC50 [2]: 5.33 µM
CCCSc1ccc2nc(NC(=O)OC)[nH]c2c1 [albendazole, Albendazole, reference compound]					EC50 [6]: 0.23 µM; EC50 ([4]; Giardia duodenalis, 24 h): 0.41 µM
CC(C)(C)c1cnc(NC(=O)c2ccccc2O)s1 [MMV495543]	51%	47.6	97%	2.77 ± 0.21	CC50 [2]: > 40 µM
COc1cc(-c2cc(-c3ccc(S(C)(=O)=O)cc3)cnc2N)ccc1O [MMV010576]	87%	> 10	94%	1.9 ± 0.28	EC50 [1, 7]: 3 µM and 2.99 µM; CC50 [2]: > 40 µM
COc1ccc(Cl)cc1NC(=O)CN(C)C(=O)c1cnn(-c2ccccc2)n1 [MMV020710]	43%		7.5%		
O=C1N(Cc2cc3ccccc3s2)CC2CN(Cc3ccccc3)CCN12 (centres unmarked) [MMV084603]	43%		62%		
Nc1ncnc2c1ncn2C[C@@H](O)[C@@H](O)C(=O)O [MMV689255]	46%		33%		
CCNC(=O)C(C)Nc1nc(-c2cccnc2)nc2sc(C)c(C)c12 (centres unmarked) [MMV1037162]	20%		11%		
CC(C(=O)N1CCCC1)N1CCN(S(=O)(=O)c2ccc(C(C)(C)C)cc2)CC1 (centres unmarked) [MMV020291]	61%		13%		

SMILES	Crypto (10 uM) Mean % inhibition [1]	CC50 [3] [µM]	Giardia (16 uM) Mean % inhibition [4]	EC50 [4, 8] [µM]	also measured
O=C(c1ccc(NCCO)cc1)C1C[C@H]1c1ccc(Cl)cc1 (some centres unmarked) [MMV676877]	70%		8%		
CS(=O)(=O)Cc1nc2ccccc2oc1=O [MMV553002]	74%		12%		
COc1ccc(CCN2CCC(NCc3cccc(N(C)C)c3)CC2)cc1 [MMV011511]	X* (Mean or standard deviation are negative but not significantly different from the control to be a growth promoter)		73%		
Nc1ncnc2c1ncn2[C@@H]1O[C@H](COS(=O)(=O)NC(=O)c2ccccc2O)[C@@H](O)[C@H]1O [MMV687700]	X* (Mean or standard deviation are negative but not significantly different from the control to be a growth promoter)		15%		
Nc1ncnc2c1c(-c1cnc3ccccc3c1)nn2CC1CCNCC1 [MMV688411]	X* (Mean or standard deviation are negative but not significantly different from the control to be a growth promoter)		X* (Mean or standard deviation are negative but not significantly different from the control to be a growth promoter)		
CC(C)(C)n1nc(Cc2cccc3ccccc23)c2c(N)ncnc21 [MMV676599]	86%		21%		
Cc1cc(C)nc(-n2nc(C)cc2Nc2ccccc2)n1 [MMV062221]	50%		35%		
c1ccc(Oc2ccc(-c3cc(N4CCOCC4)n[nH]3)cc2)cc1 [MMV045105]	19%		16%		
O=C(NC1CCCCC1)N1CCN(Cc2ccc3c(c2)OCO3)CC1 [MMV676444]	67%		30%		
COc1ccc(OC)c(NCc2ccc3nc(N)nc(N)c3c2Cl)c1 [MMV675968]				> 10	C. parvum cell growth inhibition in the initial screen ([1]; 10 μM, 48 hours): 88%; EC50 [1, 7]: 2.1 µM; G. lamblia inhibition of parasite growth in the initial screen ([4]; 16 μM, 24 hours): 90%; G. lamblia EC50 [4, 8]: not potent
CCCn1c(NC(=O)c2ccc3ccccc3n2)nc2ccccc21 [MMV1030799]	81%		13%		
Nc1ncc(-c2ccc(C(F)(F)F)nc2)cc1-c1ccc(C(F)(F)F)nc1 [MMV668727]	82%		0.605%		
CCN(CC)C(=O)N1CCN(C)CC1 [MMV002816]	X* (Mean or standard deviation are negative but not significantly different from the control to be a growth promoter)		29%		
O=C(Nc1ccc2c(c1)B(O)OC2)c1ccccc1C(F)(F)F [MMV652003]	94%		14%		
FC(F)(F)c1ccc(N(c2cccnc2)C2CCN(c3ccc(C(F)(F)F)cn3)CC2)cc1 [MMV689243]	X* (Mean or standard deviation are negative but not significantly different from the control to be a growth promoter)		11%		
Cc1nn(C)cc1C(C)Nc1nncc(-c2ccc(C(F)(F)F)cc2)n1 (centres unmarked) [MMV019993]	X* (Mean or standard deviation are negative but not significantly different from the control to be a growth promoter)		22%		

Source: paper PMC6095626, “Screening of the Pathogen Box for inhibitors with dual efficacy against Giardia lamblia and Cryptosporidium parvum” (PLoS Neglected Tropical Diseases, 2018)
